# Data: patent publication US6596772B1, “Phosphate mimics and methods of treatment using phosphatase inhibitors” (Sugen, Inc., priority 1999, dated 2003)
# How the values were obtained:
# Assay in all cases: PTP IC50 assay, pNPP or FDP as substrate
# Format in all cases: biochemical
# PTP SHP2 = molecular target: T1, PTP SHP2 (Homo sapiens, UniProt Q06124); conditions: pNPP or FDP as substrate, 25° C.; read-out: PTP IC50 SHP2
# T1 construct: The catalytic domain was amplified using the following oligonucleotides; made in house; host or cells: Sf-9 insect cells (pFastBac-G2T)
# T1 sequence (Q06124 247-517 limits assumed): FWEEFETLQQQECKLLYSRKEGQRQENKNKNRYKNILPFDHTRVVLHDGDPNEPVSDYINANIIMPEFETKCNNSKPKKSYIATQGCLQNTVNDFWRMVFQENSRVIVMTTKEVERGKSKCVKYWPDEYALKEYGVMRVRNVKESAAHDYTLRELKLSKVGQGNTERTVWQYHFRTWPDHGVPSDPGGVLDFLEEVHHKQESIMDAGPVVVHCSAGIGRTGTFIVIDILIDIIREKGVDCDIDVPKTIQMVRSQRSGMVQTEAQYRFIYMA
# Protocol: (§1) The following in vitro assay procedure is preferred to determine the level of activity and effect of the different compounds of the present invention on one or more of the PTPs. Similar assays can be designed along the same lines for any PTP using techniques well known in the art.
# (§2) The catalytic assays described herein are performed in a 96-well format. The general procedure begins with the determination of PTP optimal pH using a three-component buffer system that minimizes ionic strength variations across a wide range of buffer pH. Next, the Michaelis-Menten constant, or Km, is determined for each specific substrate-PTP system. This Km value is subsequently used as the substrate reaction concentration for compound screening. Finally, the test PTP is exposed to varying concentrations of compound for fifteen minutes and allowed to react with substrate for ten minutes. The results are plotted as percent inhibition versus compound concentration and the IC50 interpolated from the plot.
# (§3) All assays were performed using pNPP or FDP as substrate. The optimum pH was determined for each PTP used.
# (§4) PTPase activity was assayed at 25° C. in a 100-μl reaction mixture containing an appropriate concentration of pNPP or FDP as substrate. The reaction was initiated by addition of the PTP and quenched after 10 min by addition of 50 μl of IN NaOH. The non-enzymatic hydrolysis of the substrate was corrected by measuring the control without the addition of the enzyme. The amount of p-nitrophenol produced was determined from the absorbance at 410 nm. To determine the kinetic parameter, Km, the initial velocities were measured at various substrate concentrations and the data were fitted to the Michaelis equation where velocity=(Vmax*[S])/(Km+[S]), and [S]=substrate reaction concentration.
# (§5) The effect of the compounds on PTP was evaluated at 25° C. using pNPP or FDP as substrate. PTP was pre-incubated for fifteen minutes with various concentrations of compound. Substrate was then added at a fixed concentration (usually equal to the Km previously calculated). After 10 minutes, NaOH was added to stop the reaction. The hydrolysis of pNPP was followed at 410 nm on the Biotek Powerwave 200 microplate scanning spectrophotometer. The percent inhibition was calculated as follows: Percent Inhibition=[(control signal−compound signal)/control signal] ×100%. The IC50 was then determined by interpolation of a percent inhibition versus compound concentration plot.
# (§6) Plasmids designed for bacterial GST-PTP fusion protein expression were derived by insertion of PCR-generated human PTP fragments into pGEX vectors (Pharmacia Biotech). Several of these constructs were then used to subclone phosphatases into pFastBac-1for expression in Sf-9 insect cells. Oligonucleotides used for the initial amplification of PTP genes are shown below. The cDNAs were prepared using the Gilbo BRL superscript preamplification system on RNAs purchased from Clontech.
# SHP-2 cDNA was used as described earlier (Vogel W., et al.,1993, Science, 259:1611-4). The catalytic domain was amplified using the following oligonucleotides 5′oligo: 5′-[…]-3′ (SEQ ID NO: 2) 3′oligo: 5′-[…]-3′ (SEQ ID NO: 3) and subsequently subcloned into BamH1-Xba-1 sites. It was then ligated into pfas Bac-G2T BamH1-Xba-1 sites.
# PTP MEG2 = molecular target: T2, PTP MEG2 (Homo sapiens, UniProt P43378); conditions: pNPP or FDP as substrate, 25° C.; read-out: PTP IC50 MEG2
# T2 construct: made in house; host or cells: E. coli BL-21 (pGEX 6P-1)
# T2 sequence (P43378 262-593 limits assumed): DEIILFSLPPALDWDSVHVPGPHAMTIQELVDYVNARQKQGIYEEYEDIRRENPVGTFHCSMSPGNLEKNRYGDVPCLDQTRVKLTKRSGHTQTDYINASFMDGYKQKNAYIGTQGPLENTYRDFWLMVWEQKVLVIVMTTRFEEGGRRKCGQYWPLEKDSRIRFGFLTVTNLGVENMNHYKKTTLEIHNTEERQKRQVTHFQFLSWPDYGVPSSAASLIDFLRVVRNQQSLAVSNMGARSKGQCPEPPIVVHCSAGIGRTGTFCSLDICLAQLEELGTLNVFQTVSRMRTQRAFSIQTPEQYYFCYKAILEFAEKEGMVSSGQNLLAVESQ
# Protocol: as §1, §2, §3, §4, §5, §6
# The PTP MEG2 cDNA was amplified from human placenta single strand cDNA (Clontech RNA) using the following oligonucleotides: 5′oligo: 5′-[…]-3′ (SEQ ID NO: 8) 3′oligo: 5′-[…]-3′ (SEQ ID NO: 9) and subsequently ligated into pGex 6P-1 Eco RI/Xho I sites.
# PTP SIGMA = molecular target: T3, PTP SIGMA (Homo sapiens, UniProt Q13332); conditions: pNPP or FDP as substrate, 25° C.; read-out: PTP IC50 Sigma
# T3 construct: made in house; host or cells: E. coli BL-21 (pGEX 6P-1)
# T3 sequence (Q13332 1320-1660 limits assumed): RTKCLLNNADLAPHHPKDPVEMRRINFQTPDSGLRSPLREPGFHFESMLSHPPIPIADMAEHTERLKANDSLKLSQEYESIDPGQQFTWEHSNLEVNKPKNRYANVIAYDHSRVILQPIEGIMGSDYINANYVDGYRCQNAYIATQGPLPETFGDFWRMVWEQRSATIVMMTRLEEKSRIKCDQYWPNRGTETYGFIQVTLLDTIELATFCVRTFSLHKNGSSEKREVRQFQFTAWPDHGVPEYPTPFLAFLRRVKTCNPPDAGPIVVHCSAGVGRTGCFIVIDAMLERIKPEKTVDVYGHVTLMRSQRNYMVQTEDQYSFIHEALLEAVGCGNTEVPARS
# Protocol: as §1, §2, §3, §4, §5, §6
# The PTP Sigma cDNA was amplified from human brain single strand cDNA (Clontech RNA) using the following oligonucleotides: 5′oligo: 5′-[…]-3′ (SEQ ID NO: 12) 3′oligo: 5′-[…]-3′ (SEQ ID NO: 13) and subsequently ligated into pGex 6P-1 Eco RI/Xho I sites.
Structure (SMILES),IC50 (PTP SHP2) [µM],IC50 (PTP MEG2) [µM],IC50 (PTP SIGMA) [µM]
"O=S(=O)(Nc1ccc(Oc2cccc(Oc3ccc(NS(=O)(=O)C(F)(F)F)cc3)c2)cc1)C(F)(F)F [Example 74, 1,3-Bis(4-trifluoromethylsulfonamidophenoxy)benzene]",2.8,58.7,7.6
"O=S(=O)(c1ccc(COCc2ccc(S(=O)(=O)C(F)(F)F)cc2)cc1)C(F)(F)F [Example 1, Bis (4-trifluoromethylsulfonylbenzyl) ether]",2,55,> 100
"O=C(O)Cc1cccc(CC(=O)Nc2cccc(S(=O)(=O)C(F)(F)F)c2)c1 [Example 28, {3-[(3-Trifluoromethanesulfonyl-phenylcarbamoyl)-methyl]-phenyl}-acetic acid]",17.9,33.3,45.1
"CCNc1ccc(S(=O)(=O)C(F)(F)F)cc1NC(=O)Cc1ccc(S(C)(=O)=O)cc1 [Example 25, N-(2-Ethylamino-5-trifluoromethanesulfonyl-phenyl)-2-(4-methanesulfonyl-phenyl)-acetamide]",> 100,52.6,> 71
"COC(=O)c1ccc(OCCOc2ccc(S(=O)(=O)C(F)(F)F)cc2[N+](=O)[O-])cc1 [Example 14, 4-[2-(2-nitro-4-trifluoromethanesulfonyl-phenoxy)-ethoxy]-benzoic acid methyl ester]",> 100,> 100,6.75
"O=S(=O)(c1ccc(COc2ccc(S(=O)(=O)C(F)(F)F)cc2)cc1)C(F)(F)F [Example 2, 4-Trifluoromethylsulfonylbenzyl 4-trifluoromethylsulfonylphenyl ether]",42.6,62.1,30.5
